# Assay results reported in patent publication US7364866B2, “Drosophila G protein coupled receptors, nucleic acids, and methods related to the same” (Pharmacia & Upjohn Company, priority 1999, dated 2008).
# Non-standard residues stand in square brackets, D forms with d. No end group written: not given here. pGlu = O=C1CC[C@@H](C(=O)O)N1
# How the values were obtained:
# [1] = molecular target: DmGPCR5 (Drosophila melanogaster, UniProt P30975, L70Q); assay: biochemical; parameters: expressed in transfected cells; host or cells: CHO-1000A (so in the source), transient; conditions: DmGPCR5; given in words
# DmGPCR5, sequence (P30975 whole entry L70Q): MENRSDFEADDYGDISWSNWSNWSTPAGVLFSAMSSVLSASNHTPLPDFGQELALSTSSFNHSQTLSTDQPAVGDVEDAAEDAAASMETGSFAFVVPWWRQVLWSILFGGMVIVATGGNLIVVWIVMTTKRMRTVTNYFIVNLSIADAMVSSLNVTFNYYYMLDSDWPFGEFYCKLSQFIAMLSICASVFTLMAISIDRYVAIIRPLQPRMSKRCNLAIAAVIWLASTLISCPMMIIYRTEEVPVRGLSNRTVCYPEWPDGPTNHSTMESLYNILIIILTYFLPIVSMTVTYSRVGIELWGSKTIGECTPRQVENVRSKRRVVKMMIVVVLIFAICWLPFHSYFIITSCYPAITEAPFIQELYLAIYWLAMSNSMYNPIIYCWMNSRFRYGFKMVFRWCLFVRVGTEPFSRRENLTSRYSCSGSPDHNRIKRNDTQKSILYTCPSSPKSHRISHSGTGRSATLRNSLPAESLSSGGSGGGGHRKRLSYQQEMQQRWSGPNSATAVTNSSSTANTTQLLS
# Procedure: (§1) The transfected cells were washed once with ice-cold Dulbecco's phosphate buffered saline (PBS), 5 ml per 10 cm plate, and scraped into 5 ml of the same buffer. Cell suspensions from multiple plates were combined and centrifuged at 500×g for 10 min at 4° C. The cell pellet was reconstituted in ice-cold TEE (25 mM TRIS, 5 mM EGTA, 5 mM EDTA). Convenient aliquots were snap-frozen in liquid nitrogen and stored at −70° C. After thawing, the cells were homogenized and centrifuged at 4° C., 500×g for 5 minutes to pellet nuclei and unbroken cells. The supernatant was centrifuged at 47,000×g for 30 minutes at 4° C. The membrane pellet was washed once with TEE, resuspended in 20 mM HEPES, pH 7.4, 100 mM NaCl, 10 mM MgCl2, 1 mM EDTA (assay buffer), aliquoted and frozen in liquid nitrogen. Membrane aliquots were stored at −70° C. Membrane protein concentration was determined using the BCA Protein Assay Reagent from Pierce (Rockford, Ill.) and BSA as standard.
# Initially, reaction mixtures were prepared in 96-well polypropylene plates (Nunc). In each well, peptide aqueous solution (20 μl, 10×), or water controls (20 μl), 18.2 μM GDP in assay buffer (0.11 ml, 10 μM final), and membranes suspended in assay buffer (50 μl, 10 μg membrane protein) were mixed and placed on ice. […] Then the membranes were washed 3 times with 0.25 ml ice-cold wash buffer/well (10 mM HEPES, 10 mM MgCl2, pH 7.4) and vacuum filtered. […] Each treatment was carried out in triplicates.
# (§2) Ligand-induced stimulation of [^35S]GTPγS binding was expressed as fold increase over the basal activity with no ligand added. Each treatment was run either in triplicate, or, on occasion, in duplicate, and the binding (cpm) was calculated as means +/− standard deviations. Dose-response curves for the receptor/ligand systems were analyzed using a non-linear least square SAS model, y=Bmax X/(Kd+X). Other dose-response curves were analyzed using Prism (GraphPad Software, Inc. San Diego, Calif.) and the following equation y=Bottom+(Top−Bottom)/(1+10^LogEC50-X).
# (§3) Originally, we have chosen the GTPγS assay as a functional assay because agonist-driven stimulation of GTPγS reflects early events in the DmGPCR activation cascade, regardless of further activation pathways of various down-stream signaling events. This appears especially useful for the assessment of possible activation of orphan DmGPCRs with unknown functions and unknown signaling pathways. The GTPγS assay was carried out with membranes prepared from CHO cells transiently transfected with DNA encoding Drosophila GPCRs using a 96-well MultiScreen G/FB filter plates and a MultiScreen vacuum manifold (Millipore) for filtration. Since the GTPγS assay is known to poorly recognize GPCRs coupled to the Gq class of G-proteins, a Ca^+2 mobilization assay based on a FLIPR readout was used as well to evaluate Gq-coupled orphan GPCRs in CHO cells transiently transfected with DNA encoding Drosophila GPCRs.
# [2] = test system: DmGPCR9; assay: calcium mobilization assay (FLIPR); assay type: cell-based, Drosophila melanogaster; conditions: tested at 10 μM
# DmGPCR9, sequence (as listed by the source): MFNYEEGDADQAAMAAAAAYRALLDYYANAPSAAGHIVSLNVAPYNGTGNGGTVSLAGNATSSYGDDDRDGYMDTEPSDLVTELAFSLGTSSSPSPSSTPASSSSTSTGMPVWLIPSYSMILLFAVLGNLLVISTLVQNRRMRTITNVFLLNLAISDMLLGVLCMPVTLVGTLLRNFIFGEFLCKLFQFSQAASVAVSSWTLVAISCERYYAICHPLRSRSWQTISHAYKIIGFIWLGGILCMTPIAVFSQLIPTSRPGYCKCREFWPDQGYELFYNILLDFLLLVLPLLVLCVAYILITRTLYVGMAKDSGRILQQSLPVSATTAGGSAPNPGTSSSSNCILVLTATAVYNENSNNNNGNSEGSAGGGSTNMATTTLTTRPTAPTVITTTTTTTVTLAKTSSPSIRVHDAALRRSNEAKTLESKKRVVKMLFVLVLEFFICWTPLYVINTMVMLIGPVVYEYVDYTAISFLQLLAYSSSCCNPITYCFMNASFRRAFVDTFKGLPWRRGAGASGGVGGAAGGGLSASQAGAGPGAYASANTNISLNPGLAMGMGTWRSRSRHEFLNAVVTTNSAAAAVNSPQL
# Procedure: (§4) Changes in intracellular calcium levels are another recognized indicator of G protein-coupled receptor activity, and such assays can be employed to screen for modulators of DmGPCR activity. For example, CHO cells stably transfected with a DmGPCR expression vector are plated at a density of 4×10^4 cells/well in Packard black-walled, 96-well plates specially designed to discriminate fluorescence signals emanating from the various wells on the plate. The cells are incubated for 60 minutes at 37° C. in modified Dulbecco's PBS (D-PBS) containing 36 mg/L pyruvate and 1 g/L glucose and one of four calcium indicator dyes (Fluo-3™ AM, Fluo-4™ AM, Calcium Green™-1 AM, or Oregon Green™ 488 BAPTA-1 AM), each at a concentration of 4 μM. […]
# (§5) A calcium response is initiated by the addition of one or more candidate receptor agonist compounds, calcium ionophore A23187 (10 μM; positive control), or ATP (4 μM; positive control). Fluorescence is measured by Molecular Device's FLIPR with an argon laser (excitation at 488 nm). […] Basal fluorescence of cells was measured for 20 seconds prior to addition of candidate agonist, ATP, or A23187, and the basal fluorescence level was subtracted from the response signal. The calcium signal is measured for approximately 200 seconds, taking readings every two seconds. […]
# [3] = molecular target: T1, DmGPCR6a (Drosophila melanogaster, UniProt P25931, I47L); assay: [35S]GTPγS binding assay, membranes of transfected CHO cells; assay type: biochemical; conditions: peptide tested at 5 μM
# T1 construct: expressed in transfected cells; host or cells: CHO cells, transient
# T1 sequence (P25931 16-464 I47L): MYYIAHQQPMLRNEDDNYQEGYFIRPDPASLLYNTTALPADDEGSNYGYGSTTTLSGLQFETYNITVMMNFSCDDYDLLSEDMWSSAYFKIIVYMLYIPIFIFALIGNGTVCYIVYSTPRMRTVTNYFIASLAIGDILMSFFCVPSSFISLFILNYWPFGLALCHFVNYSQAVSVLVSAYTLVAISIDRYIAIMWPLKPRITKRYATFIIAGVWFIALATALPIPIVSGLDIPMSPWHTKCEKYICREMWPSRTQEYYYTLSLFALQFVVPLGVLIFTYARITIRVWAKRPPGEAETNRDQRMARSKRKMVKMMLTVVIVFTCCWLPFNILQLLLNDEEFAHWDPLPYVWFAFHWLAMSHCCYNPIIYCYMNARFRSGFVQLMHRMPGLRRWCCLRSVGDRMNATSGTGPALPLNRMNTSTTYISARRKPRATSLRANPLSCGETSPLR
# Procedure: as §1, with “The membrane pellet was washed once with TEE, resuspended in 20 mM HEPES, pH 7.4, 100 mM NaCl, 10 mM MgCl2, 1 mM EDTA (assay buffer), aliquoted and frozen in liquid nitrogen. Membrane aliquots were stored at −70° C.” left out, “standard. […]” for “standard.”
# as §2, with “y=Bottom+(Top−Bottom)/(1+10^LogEC50-X). […]” for “y=Bottom+(Top−Bottom)/(1+10^LogEC50-X).”
# [4] = molecular target: T2, Dmgpcr6aL (Drosophila melanogaster, UniProt P25931, I47L); assay: calcium mobilization assay (FLIPR); assay type: cell-based; conditions: FaRPs tested at 10 μM, active sequences listed in Table 7 (6aL and 6bL)
# T2 construct: A new 5′ PCR primer was designed that incorporated the PnuFlyPep15731 start codon; expressed in transfected cells; host or cells: CHO-K1 or CHO-10001A, transient
# T2 sequence (P25931 whole entry I47L): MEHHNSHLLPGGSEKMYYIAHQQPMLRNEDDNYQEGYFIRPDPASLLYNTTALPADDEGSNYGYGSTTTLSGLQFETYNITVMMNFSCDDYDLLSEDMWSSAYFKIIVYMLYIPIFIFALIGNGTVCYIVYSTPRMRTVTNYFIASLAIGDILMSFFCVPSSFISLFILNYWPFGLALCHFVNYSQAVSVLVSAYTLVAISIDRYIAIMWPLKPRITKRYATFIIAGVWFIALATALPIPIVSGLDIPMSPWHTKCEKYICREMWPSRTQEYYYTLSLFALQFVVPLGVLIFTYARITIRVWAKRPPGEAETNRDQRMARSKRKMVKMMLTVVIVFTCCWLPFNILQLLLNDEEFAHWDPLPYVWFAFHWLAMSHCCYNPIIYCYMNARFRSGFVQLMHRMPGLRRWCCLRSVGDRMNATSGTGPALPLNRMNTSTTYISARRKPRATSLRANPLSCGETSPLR
# Procedure: as §4, §5
# [5] = molecular target: T3, Dmgpcr6bL (Drosophila melanogaster, UniProt P25931, I47L); assay: calcium mobilization assay (FLIPR); assay type: cell-based; conditions: FaRPs tested at 10 μM, active sequences listed in Table 7 (6aL and 6bL)
# T3 construct: A new 5′ PCR primer was designed that incorporated the PnuFlyPep15731 start codon; expressed in transfected cells; host or cells: CHO-K1 or CHO-10001A, transient
# T3 sequence (P25931 other isoform, or with tags, fused parts or gaps I47L): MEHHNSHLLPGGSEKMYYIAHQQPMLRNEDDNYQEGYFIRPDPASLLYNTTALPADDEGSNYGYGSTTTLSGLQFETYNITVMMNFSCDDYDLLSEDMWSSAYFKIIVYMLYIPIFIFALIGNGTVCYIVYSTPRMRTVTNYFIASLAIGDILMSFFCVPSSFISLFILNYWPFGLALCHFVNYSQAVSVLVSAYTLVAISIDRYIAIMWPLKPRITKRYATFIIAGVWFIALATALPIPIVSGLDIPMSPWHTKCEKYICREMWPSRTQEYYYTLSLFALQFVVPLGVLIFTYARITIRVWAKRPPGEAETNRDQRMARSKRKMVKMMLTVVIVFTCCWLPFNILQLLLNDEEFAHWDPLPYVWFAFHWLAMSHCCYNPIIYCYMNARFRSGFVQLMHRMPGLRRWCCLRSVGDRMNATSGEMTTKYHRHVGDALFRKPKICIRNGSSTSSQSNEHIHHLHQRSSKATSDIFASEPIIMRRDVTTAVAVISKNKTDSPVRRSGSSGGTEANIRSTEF
# Procedure: as §4, §5
# [6] = test system: DmGPCR7; assay: FLIPR analysis of intracellular calcium release; assay type: cell-based, Drosophila melanogaster; conditions: DmGPCR7 in CHO-10001A cells; peptides with C-terminal HSWGa; given in words
# DmGPCR7, sequence (as listed by the source): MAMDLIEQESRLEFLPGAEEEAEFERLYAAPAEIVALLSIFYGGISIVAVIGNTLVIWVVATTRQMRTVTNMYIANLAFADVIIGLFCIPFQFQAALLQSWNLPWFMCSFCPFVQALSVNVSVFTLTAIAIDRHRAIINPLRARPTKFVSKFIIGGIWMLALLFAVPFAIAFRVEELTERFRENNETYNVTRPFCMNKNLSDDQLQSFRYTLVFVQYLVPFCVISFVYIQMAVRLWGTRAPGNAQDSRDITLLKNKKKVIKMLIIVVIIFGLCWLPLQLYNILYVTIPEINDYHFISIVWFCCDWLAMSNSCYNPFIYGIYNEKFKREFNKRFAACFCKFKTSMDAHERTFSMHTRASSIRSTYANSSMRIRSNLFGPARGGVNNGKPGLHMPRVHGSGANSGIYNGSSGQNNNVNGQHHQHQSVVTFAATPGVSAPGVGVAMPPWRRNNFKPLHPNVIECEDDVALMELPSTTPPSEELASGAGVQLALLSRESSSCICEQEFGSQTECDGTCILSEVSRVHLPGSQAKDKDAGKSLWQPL
# Procedure: Changes in intracellular calcium levels are another recognized indicator of G protein-coupled receptor activity, and such assays can be employed to screen for modulators of DmGPCR activity. For example, CHO cells stably transfected with a DmGPCR expression vector are plated at a density of 4×10^4 cells/well in Packard black-walled, 96-well plates specially designed to discriminate fluorescence signals emanating from the various wells on the plate. The cells are incubated for 60 minutes at 37° C. in modified Dulbecco's PBS (D-PBS) containing 36 mg/L pyruvate and 1 g/L glucose and one of four calcium indicator dyes (Fluo-3™ AM, Fluo-4™ AM, Calcium Green™-1 AM, or Oregon Green™ 488 BAPTA-1 AM), each at a concentration of 4 μM. Plates are washed once with modified D-PBS and incubated for 10 minutes at 37° C. to remove residual dye from the cellular membrane. In addition, a series of washes with modified D-PBS is performed immediately prior to activation of the calcium response.
# A calcium response is initiated by the addition of one or more candidate receptor agonist compounds, calcium ionophore A23187 (10 μM; positive control), or ATP (4 μM; positive control). Fluorescence is measured by Molecular Device's FLIPR with an argon laser (excitation at 488 nm). (See, e.g., Kuntzweiler et al., Drug Dev. Res., 1998, 44(1), 14-20). The F-stop for the detector camera was set at 2.5, and the length of exposure was 0.4 milliseconds. Basal fluorescence of cells was measured for 20 seconds prior to addition of candidate agonist, ATP, or A23187, and the basal fluorescence level was subtracted from the response signal. The calcium signal is measured for approximately 200 seconds, taking readings every two seconds. Calcium ionophore A23187 and ATP increase the calcium signal 200% above baseline levels. In general, activated GPCRs increase the calcium signal approximately 10-15% above baseline signal.
# as §3
# [7] = test system: DmGPCR4; assay: [35S]GTPγS binding assay, membranes of transfected CHO cells; assay type: biochemical, Drosophila melanogaster; conditions: given in words
# DmGPCR4, sequence (as listed by the source): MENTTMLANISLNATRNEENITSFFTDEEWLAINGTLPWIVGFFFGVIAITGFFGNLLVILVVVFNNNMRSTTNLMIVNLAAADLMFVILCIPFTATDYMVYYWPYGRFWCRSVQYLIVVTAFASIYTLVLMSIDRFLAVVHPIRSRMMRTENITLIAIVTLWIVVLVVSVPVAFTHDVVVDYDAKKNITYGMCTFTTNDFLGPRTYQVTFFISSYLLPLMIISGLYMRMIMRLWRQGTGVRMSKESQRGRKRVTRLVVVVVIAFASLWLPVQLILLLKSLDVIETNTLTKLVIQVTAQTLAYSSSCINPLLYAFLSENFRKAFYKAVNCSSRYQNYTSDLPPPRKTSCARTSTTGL
# Procedure: as §1, with “The membrane pellet was washed once with TEE, resuspended in 20 mM HEPES, pH 7.4, 100 mM NaCl, 10 mM MgCl2, 1 mM EDTA (assay buffer), aliquoted and frozen in liquid nitrogen. Membrane aliquots were stored at −70° C.” left out, “standard. […]” for “standard.”
# as §2, with “y=Bottom+(Top−Bottom)/(1+10^LogEC50-X). […]” for “y=Bottom+(Top−Bottom)/(1+10^LogEC50-X).”
# [8] = test system: first Drosophila allatostatin receptor; conditions: via Gi/Go pathways; cited from earlier work
# [9] = molecular target: DmGPCR8; assay: [35S]GTPγS binding assay, dose response; assay type: biochemical, Drosophila melanogaster; conditions: DmGPCR8 in CHO-10001A cells; given in words
# Procedure: as §1, with “The membrane pellet was washed once with TEE, resuspended in 20 mM HEPES, pH 7.4, 100 mM NaCl, 10 mM MgCl2, 1 mM EDTA (assay buffer), aliquoted and frozen in liquid nitrogen. Membrane aliquots were stored at −70° C.” left out, “standard. […]” for “standard.”
# as §2, with “y=Bottom+(Top−Bottom)/(1+10^LogEC50-X). […]” for “y=Bottom+(Top−Bottom)/(1+10^LogEC50-X).”
# Target sequence in this assay (as listed by the source): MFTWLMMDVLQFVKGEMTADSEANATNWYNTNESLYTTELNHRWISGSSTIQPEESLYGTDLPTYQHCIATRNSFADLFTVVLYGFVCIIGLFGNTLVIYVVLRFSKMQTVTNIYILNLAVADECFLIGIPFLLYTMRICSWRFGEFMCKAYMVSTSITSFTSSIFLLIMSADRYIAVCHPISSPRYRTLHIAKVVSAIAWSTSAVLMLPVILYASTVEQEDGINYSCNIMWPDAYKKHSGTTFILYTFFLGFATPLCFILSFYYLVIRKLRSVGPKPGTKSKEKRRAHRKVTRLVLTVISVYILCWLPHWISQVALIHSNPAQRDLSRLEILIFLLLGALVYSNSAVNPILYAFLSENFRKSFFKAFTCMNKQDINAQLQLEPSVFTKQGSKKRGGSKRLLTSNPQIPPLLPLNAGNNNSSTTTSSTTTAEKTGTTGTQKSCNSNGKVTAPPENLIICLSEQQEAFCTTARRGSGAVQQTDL
# [10] = test system: DmGPCR8; assay: direct calcium mobilization assay (FLIPR); assay type: cell-based, Drosophila melanogaster; conditions: DmGPCR8 without chimeric G-protein
# Procedure: as §4, §5
# Target sequence in this assay (as listed by the source): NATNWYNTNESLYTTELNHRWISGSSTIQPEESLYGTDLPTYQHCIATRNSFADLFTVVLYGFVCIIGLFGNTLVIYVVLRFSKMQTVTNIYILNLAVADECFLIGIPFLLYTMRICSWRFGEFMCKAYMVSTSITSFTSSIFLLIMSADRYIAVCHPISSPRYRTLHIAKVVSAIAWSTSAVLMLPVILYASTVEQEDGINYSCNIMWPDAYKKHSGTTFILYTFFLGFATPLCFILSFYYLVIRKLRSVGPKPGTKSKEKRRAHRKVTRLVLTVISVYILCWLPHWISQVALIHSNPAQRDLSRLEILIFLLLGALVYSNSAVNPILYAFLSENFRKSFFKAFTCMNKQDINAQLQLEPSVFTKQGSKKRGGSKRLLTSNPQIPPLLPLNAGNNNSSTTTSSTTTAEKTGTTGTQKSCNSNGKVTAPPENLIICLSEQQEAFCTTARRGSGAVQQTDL
substance,measurement,setting,value
"APVNSFVGMR [DTK-4, APVNSFVGMR-NH2]","EC50, stimulation of GTPγS binding",[1],low micromolar range
FDDYGHLRF-NH2 [unsulfated counterpart of FDDY(SO3H)GHLRF-NH2],calcium signal,[2],very weak calcium signal
FLFQPQRF-NH2 [NPFF],increase in GTPγS binding above the basal,[3],4 fold
same,Ca+2 responses (FLIPR),[4],recognized
same,Ca+2 responses (FLIPR),[5],recognized
"NPFHSWG [Culekinin, NPFHSWGa]","EC50, intracellular calcium release (FLIPR)",[6],picomoloar to subnanomolar range
NSVVLGKKQRFHSWGa (NSVVLGKKQRFHSWG-NH2) [DLK-1],"EC50, intracellular calcium release (FLIPR)",[6],picomoloar to subnanomolar range
"QRFHSWG [DLK-2a, QRFHSWGa]","EC50, intracellular calcium release (FLIPR)",[6],picomoloar to subnanomolar range
"SRPYSFGL [drostatin-3, Ser-Arg-Pro-Tyr-Ser-Phe-Gly-Leu-NH2]","EC50, GTPγS responses",[7],low nanomolar range
same,functional activation of the receptor,[8],functionally activated
[pGlu]VRFQCYFNPISCF-OH (cysteine pairing not given here) [AST-C],"EC50, GTPγS-binding responses",[9],low nanomolar range
same,activity in direct calcium mobilization assay (FLIPR),[10],did not show any activity
pGlu-RFHSWGa [DLK-2],"EC50, intracellular calcium release (FLIPR)",[6],picomoloar to subnanomolar range
pGlu-SSFHSWGa [LK-VI],"EC50, intracellular calcium release (FLIPR)",[6],picomoloar to subnanomolar range
